Here are results for 19 molecules from patent US20240016882A1, “AUTOPHAGY-INHIBITING PEPTIDE AND ORGANIC ACID SALT THEREOF ADDRESSING ISSUES OF VASCULAR PERMEABILITY” (BIOTEMPT B.V., priority 2020, published 2024).

Read-outs that look alike come from different tables or passages of the source. Ends that are not written are not given here. Peptide text beside a SMILES is read from it.

Series [1] is described as follows: Solubility / aggregation points of AQGV salts in 0.9% NaCl. An excerpt: (§1) At first attempts were made to mix a solution of the free base and an acid in order to achieve a concentrated DMSO solution of the salt and subsequently dilute this in water in order to determine solubility. […] It was decided to determine the solubility of the salts required by dilution of known amount of salts (not soluble) till a clear solution is obtained.

Series [2] is described as follows: Dose-escalating phase I studies: pharmacokinetics, safety and tolerability of AQGV. In kind it is in vivo, humans (healthy subjects). The procedure: Three double-blind, randomized, placebo-controlled, dose-escalating phase I studies in healthy subjects were conducted to evaluate safety, tolerability and pharmacokinetics of AQGV (SEQ ID NO: 5). In the first single dose study, 32 subjects were assigned to four single dosage groups (1, 3, 10 or 30 mg/kg). In the second multiple dosage study, 24 subjects were assigned to three dosing groups (10, 20 or 30 mg/kg) and received study medication thrice a day for three days. In the third continuous dosing study, 24 subjects were assigned to three dosing groups (15, 30 or 90 mg/kg/hour) to receive study medication by 2-hour continuous iv infusion. Pharmacokinetics (PK), safety and tolerability assessments were performed up to 14-days.

Series [3] in a line: Previous first in human study of AQGV. Conditions: up to i.v. doses of 30 mg/kg three times a day (90 mg/kg daily) for three days. In kind it is in vivo.
A further series has as its system p38 MAPK. Put plainly: Phosphorylation status after fMLP challenge of hPBMCs: p38 MAPK. The series is classed as cell-based, human. Particulars: 1 μM fMLP. The procedure:
(§2) Human-derived peripheral blood monocytes as a prototype cell-system for FPR-expression were isolated from healthy volunteers (hPBMCs) according to routine procedures^1 at University Medical Centre Groningen, The Netherlands. Subsequently PMBC were incubated with the Biotempt-supplied peptide AQGV (SEQ ID NO: 5) (which was freshly prepared as a 20 […] stock solution in bidistilled water) or treated with the vehicle for 10 min. Then hPMBCs were challenged with 1 μM fMLP for various time periods (see results FIGS. 4a, b, 4c and 4d). Each stimulus 0, 30, 60, 300 and 600 seconds at two concentrations AQGV (SEQ ID NO: 5), 20 ng/ml and 50 ng/ml and in six-fold. Following stimulation with fMLP for the indicated time periods, the phosphorylation status of p38MAPK, JNK, PKB, P42/p44MAPK/ERK1,2 and STAT3 was analysed 3. STAT3 was undetectable, JNK and P42/p44MAPK/ERK1,2.

For the next series, the system named is PKB (also known as AKT). Kind of series: Phosphorylation status after fMLP challenge of hPBMCs: PKB (AKT). The series is classed as cell-based, human. Particulars: 1 μM fMLP. The method, then: as §2
The next series concerns JNK. Put plainly: Phosphorylation status after fMLP challenge of hPBMCs: JNK. Conditions: hPBMC, 1 μM fMLP, 0-600 seconds. The series is classed as cell-based, human. The method, then:
as §2

For another series, the system named is P42/p44MAPK/ERK1,2. Put plainly: Phosphorylation status after fMLP challenge of hPBMCs: P42/p44MAPK/ERK1,2. The series is classed as cell-based, human. Particulars: hPBMC, 1 μM fMLP, 0-600 seconds. The procedure: as §2
Another series deals with autophagy. Particulars: cited from earlier work.
Another series concerns human cells. Conditions: AJ Meijer et al Amino Acids 2015; cited from earlier work.
For another series, the target named is mTOR kinases (Homo sapiens, UniProt P42345). Conditions: cited from earlier work.
Source text in series [4]: as §1
On the set-up of series [5]: species or system male CD-1 mice. Conditions: mouse, in vivo. The procedure: The present study, which was conducted by TNO Biosciences, Utrechtseweg, Netherlands, was designed to provide data on the distribution and metabolism of [14C]-AQGV (“AQGV” disclosed as SEQ ID NO: 5) (Ala-Gln-[1-^14C]Gly-Val (“AQGV” disclosed as SEQ ID NO: 5)) in male CD-1 mice following a single intravenous dose of 50 mg/kg. To this end, mice were sacrificed at […], and 6 and 24 hours after administration of radiolabeled AQGV (SEQ ID NO: 5), counts in various tissues were determined, and the radioactivity present in the urine and plasma were analyzed by HPLC.

The conditions of series [6]: cited from earlier work.

On to `CC(C)[C@H](NC(=O)CNC(=O)[C@H](CCC(N)=O)NC(=O)[C@H](C)N)C(=O)O` [AQGV-citrate] (H-AQGV-OH), for which the “solubility compared to AQGV-Ac” value in series [1] (0.9% NaCl) is recorded as “Higher solubility”. Further, the “appearance / behaviour of the concentrated solution” value (“appearance / behaviour” for short) in [1] (0.9% NaCl, listed as Citric acid) is “does not crystallize or aggregate but tend to form a highly viscous solution”; in [1] (0.9% NaCl, listed as citric acid) it was “remains clear but got very thick/viscous”. In addition, the total amount dissolved in series [1] (in 0.5 mL 0.9% NaCl) was 2.75 mmol.

For orientation: clearance means the volume of plasma or blood freed of the substance per unit of time. For orientation: half-life means the time needed for the level to fall by half in the phase considered. Take `CC(C)[C@H](NC(=O)CNC(=O)[C@H](CCC(N)=O)NC(=O)[C@H](C)N)C(=O)O` [AQGV] (H-AQGV-OH): in series [2] (human, in vivo, iv, range over phase I studies, read-out: clearance rate), the clearance fell in the range of 26 to 61 L/h/kg. The half-life in series [2] (human, in vivo, iv, range over phase I studies, read-out: estimated half life time) is 2 to 22 min. For the same molecule, the Vd in series [2] (human, in vivo, iv, range over phase I studies, read-out: volume of distribution) was 4 to 33 L/kg. Also, the “more than proportional increases in exposure to the highest dosages” value in [2] (i.v., range over phase I studies) was 126-137%. Besides, the tolerability entry is given as “well tolerated” in [2] (i.v., single, multiple and continuous dosing up to 90 mg/kg/hour); “well tolerated” in [3]. Besides, the serious adverse events result in [2] (phase I studies) is “no serious adverse events”. Further, the “subjects reporting AEs with a possible relationship to study drug” value in series [2] (subjects receiving AQGV) stood at 3 subjects. Also, the “effect on p38 MAPK kinase activated changes” value in the series with p38 MAPK (hPBMC) is “reduces p38 MAPK kinase activated changes”. In the series on p38 MAPK (hPBMC, 20 and 50 ng/ml AQGV), the “time after FPR-stimulation at which effects on p38 MAPK are detected” value came to 30 s. In addition, the “duration of effects on p38 signalling” value in the series on p38 MAPK (hPBMC, 600 seconds tested) was 600 s. Moreover, the “effect on PI3K/AKT/mTOR activated induced changes” value in the series on PKB (also known as AKT) (hPBMC) is “reduces PI3K/AKT/mTOR activated induced changes”. Also, in the series with PKB (also known as AKT) (hPBMC, 600 seconds tested), the “duration of effects on PKB-mediated signalling” value amounted to 600 s. The “time after FPR-stimulation at which effects on PKB(AKT) follow” value in the series on PKB (also known as AKT) (hPBMC, bi-phasic pattern) stood at 300 s. Moreover, the “effect on JNK phosphorylation status” value in the series with JNK was “not affected throughout”. Moreover, the “effect on P42/p44MAPK/ERK1,2 phosphorylation status” value in the series on P42/p44MAPK/ERK1,2 was “not affected throughout”.

Regarding `C[C@H](N)C(=O)O` [L-Alanine], the “Literature based activity autophagy” value in the series on autophagy was “DOWN”. Moreover, in the series on human cells, the “autophagic effects on human cells” value is given as “most prominent autophagic effects”.

In the case of `N=C(N)NCCC[C@H](N)C(=O)O` [L-Arginine], the “Literature based activity mTOR kinases” value on mTOR kinases is recorded as “activate”. For the same molecule, in the series with autophagy, the “Literature based activity autophagy” value is “DOWN”.

Take `NC(=O)CC[C@H](N)C(=O)O` [L-Glutamine]: the “Literature based activity mTOR kinases” value on mTOR kinases is listed as “activate”. Also, in the series on autophagy, the “Literature based activity autophagy” value is “DOWN”. The “autophagic effects on human cells” value in the series with human cells was “most prominent autophagic effects”.

Turning to `NCC(=O)O` [L-Glycine], in the series on autophagy, the “Literature based activity autophagy” value is “DOWN”.

In the case of `N[C@@H](Cc1c[nH]cn1)C(=O)O` [L-Histidine], the “Literature based activity mTOR kinases” value on mTOR kinases was “down”.

As for `CC[C@H](C)[C@H](N)C(=O)O` [L-Isoleucine], the “Literature based activity mTOR kinases” value on mTOR kinases is on record as “activate”. In the series with autophagy, the “Literature based activity autophagy” value is reported as “DOWN”.

In the case of `CC(C)C[C@H](N)C(=O)O` [L-Leucine], on mTOR kinases, the “Literature based activity mTOR kinases” value is “activate”. For the same molecule, the “Literature based activity autophagy” value in the series on autophagy is reported as “DOWN”. Further, the “autophagic effects on human cells” value with human cells is listed as “most prominent autophagic effects”.

Consider `NCCCC[C@H](N)C(=O)O` [L-Lysine], for which the “Literature based activity mTOR kinases” value at mTOR kinases is “down”.

As for `CSCC[C@H](N)C(=O)O` [L-Methionine], the “Literature based activity mTOR kinases” value on mTOR kinases is listed as “partial”.

Turning to `O=C(O)[C@@H]1CCCN1` [L-Proline], at mTOR kinases, the “Literature based activity mTOR kinases” value is “activate”. Also, in the series on human cells, the “autophagic effects on human cells” value is “most prominent autophagic effects”.

For `C[C@@H](O)[C@H](N)C(=O)O` [L-Threonine], the “Literature based activity mTOR kinases” value on mTOR kinases is on record as “down”.

As to `CC(C)[C@H](N)C(=O)O` [L-Valine], on mTOR kinases, the “Literature based activity mTOR kinases” value is on record as “activate”.

Turning to `Nc1ncnc2c1ncn2[C@@H]1O[C@H](COP(=O)(O)O)[C@@H](O)[C@H]1O` [adenosine-monophosphate], the “appearance / behaviour” value in series [1] (0.9% NaCl) is “no clear solution could be obtained”.

For `Nc1ncnc2c1ncn2[C@@H]1O[C@H](CO)[C@@H](O)[C@H]1O` [adenosine], in series [1] (0.9% NaCl), the “appearance / behaviour” value is reported as “no clear solution could be obtained”. Besides, in [4], the “solubility in DMSO” value was “did not dissolve in DMSO at all”.

Turning to `CSCC[C@H](NC=O)C(=O)N[C@@H](CC(C)C)C(=O)N[C@@H](Cc1ccccc1)C(=O)O` [fMLP, N-formyl-methionyl-leucyl-phenylalanine, reference compound], the “changes in phosphorylation status of p38 MAPK caused by FPR-activation” value in the series with p38 MAPK (p<0.05 from 60 to 600 sec) was “rapidly induced and significant”. In addition, the “changes in phosphorylation status of PKB caused by FPR-activation” value with PKB (also known as AKT) (p<0.05 at 600 sec) is “rapidly induced and significant”.

For Ala-Gln-[1-^14C]Gly-Val [[14C]-AQGV], in series [5], the “administered radioactivity exhaled as volatiles” value is “About 50%” and the “time to full hydrolysis of the peptide after administration” value turned out to be 15 min.

With VRLIVAVRIWRR-NH2 [IDR-1018], the aggregation result in series [6] (prepared in sodium acetate) is on record as “did not induce any appreciable aggregation”; in series [6] (solutions containing large polyatomic anions: phosphate, benzoate, nitrate, citrate), “suffer strongly from aggregation”; in [6] (solutions containing sulfate, bicarbonate, chloride, iodide anions) it was “comparatively small amount of aggregation”. For the same molecule, the “ion concentration at which aggregation was observed” value in series [6] (sulfate, bicarbonate, chloride, iodide anions) is recorded as “above 200 mM”.
